Measured values reported in patent US20230263808A1 (UNIVERSITY OF FLORIDA RESEARCH FOUNDATION, INCORPORATED, priority 2020, published 2023).
Entries after “also recorded” stand apart in the source; their conditions may differ.

How the values were obtained:
[1] = test system: IL-1β-induced IL-6 secretion by A549 lung cells; assay: IL-1β-induced IL-6 secretion by A549 lung cells (AlphaLISA); assay type: cell-based; settings: 10 μM
From the text: (§1) A) Correlation of correlation (COC) plots where each point represents the Pearson correlation coefficient, r, between a distinct gene expression or GR-peptide interaction assay with assays indicated on the x and y axes. B) The effects of all tested compounds on IL-1β-induced secretion of IL-6 (y axes) and GC-regulated phenotypes indicated on the x axes. C) The effects of all tested compounds on IL-1β-induced secretion of IL-6 (y axis) and bone mineralization (x axis). D) IL-1β-induced IL-6 production by A549 cells treated with 10 μM of the indicated compounds was compared by AlphaLISA. E-H) Myoblasts were assayed as described in FIG. 8. I) Representative myoblasts imaged during the mitochondrial potential assay. J) Plasma TNFα levels of C57BL/6 male mice treated pretreated with the indicated ligands. K) Changes in lean mass of mice in panel J were determined by whole-body NMR after an additional 18 h LPS treatment. Data shown are mean+SEM.
In order to understand whether effects on skeletal muscle could be dissociated from anti-inflammatory effects of the ligands, we profiled the compounds for suppression of IL1β-induced IL-6 secretion by A549 lung cells. Examining the correlations between assays can be used to identify dissociated assays that selectively correlate with a given phenotype, predicting discovery of dissociated ligands. […] We call this a correlation of correlations (COC) plot. […] These include recruitment of NCOA2 and NCOA3 peptides, coactivators that we and others have shown to be required for GC-dependent suppression of inflammation in different cell types (FIG. 11, A). However, for the mitochondrial assay and IL-6, there are dissociated assays shown by points that are far out from the regression line in the COC plot (FIG. 7, A). For example, interaction of CHD9 with GR predicted mitochondrial activity but not Glut4 translocation (FIG. 11, B), while interaction with the CENPR peptide selectively predicted effects on Glut4 translocation (FIG. 11, C). […] Assays that correlated with effects of the ligands on GR nuclear translocation were also highly correlated with Glut4 translocation and suppression of IL-6 secretion (FIG. 11, F). Therefore, the COC curves provide a way to identify common signaling mechanisms between different GR target tissues and signaling pathways.

C2C12 myotubes [2] = assay: Protein degradation: chymotrypsin-like proteasomal activity in C2C12 myotubes; assay type: cell-based, mouse
Description: (§2) A) C2C12 myotubes were assayed for chymotrypsin-like proteasomal activity. […] C) Quantitation of the ICW in panel B. D) ICW for surface expression of Glut4 on L6 myotubes. E) ICW for insulin-induced incorporation of puromycin into C2C12 myotube surface proteins. F-G) High-content imaging and analysis of C2C12 myoblasts stained with a Mitotracker dye. H) Assay reproducibility from screening 22 compounds on two separate occasions. The Pearson correlation coefficient, r, and its associated p-value is indicated.
(§3) C2C12 myocytes were used in all assays, except in the Glut4 translocation assay where L6 rat myocytes were used. ICW, In-Cell Western. Also see Methods.
(§4) To avoid such effects on myogenesis, we switched myoblasts to differentiation media, and then on day 4, added 10 μM cytarabine, a chemotherapy agent that kills dividing cells, and then adding GCs on day 6 or 7 and completing assays in day 8 (FIG. 8).
Physiologically, the effects of GCs on protein balance and Glut4 translocation vary in vivo depending upon the stressor. For example, GCs mediate atrophy in response to fasting but not exercise. […] To assess protein degradation, we measured chymotrypsin-like proteasomal activity (FIG. 2, A). The activating phosphorylation of AKT at Thr308 (pAKT) was measured using a LI-COR In-Cell Western assay (FIG. 2, B and C). The rate-limiting step in insulin-mediated glucose uptake is the translocation of the glucose transporter, Glut4, to the surface membrane, which we also measured by In-Cell Western without permeabilizing the myotubes (FIG. 2, D). Surface Sensing of Translation (SUnSET) (Schmidt et al., Nat Methods 6, 275-277, 2009) assay was used to measure protein synthesis by In-Cell Western, following treatment of myotubes with a low dose of puromycin, which incorporates into translating proteins, but at a low enough level to provide a readout for global protein synthesis (FIG. 2, E). […]

L6 myotubes = assay: Glut4 translocation to the myotube surface (In-Cell Western); assay type: cell-based, rat
Description: as §2, §3
(§5) Physiologically, the effects of GCs on protein balance and Glut4 translocation vary in vivo depending upon the stressor. For example, GCs mediate atrophy in response to fasting but not exercise. […] To assess protein degradation, we measured chymotrypsin-like proteasomal activity (FIG. 2, A). The activating phosphorylation of AKT at Thr308 (pAKT) was measured using a LI-COR In-Cell Western assay (FIG. 2, B and C). The rate-limiting step in insulin-mediated glucose uptake is the translocation of the glucose transporter, Glut4, to the surface membrane, which we also measured by In-Cell Western without permeabilizing the myotubes (FIG. 2, D). Surface Sensing of Translation (SUnSET) (Schmidt et al., Nat Methods 6, 275-277, 2009) assay was used to measure protein synthesis by In-Cell Western, following treatment of myotubes with a low dose of puromycin, which incorporates into translating proteins, but at a low enough level to provide a readout for global protein synthesis (FIG. 2, E). Lastly, we developed a high-content imaging assay in myoblasts stained with a MitoTracker dye, so that individual mitochondrial networks could be visualized with adequate resolution to quantitate area, segmentation, branching, and fluorescence intensity which is a measure of mitochondrial membrane potential (ψm).

C2C12 myoblasts = assay: Mitochondrial potential, high-content imaging with MitoTracker dye; assay type: cell-based, mouse
Description: as §2
(§6) A) Each dot represents the effects of a compound in the indicated assays at 10 uM. N=4-6 from two different experiments. […] C) SR11466 is efficacious at inhibiting IL-6 secretion from A549 cells. C-E). […] D) Mitochondrial activity was measured in myoblasts using high content imaging with mitotracker dye after 24 treatment. New amino acid incorporation was measured with LICOR in cell western for puromycin (SunSet assay). E) top, MMTV-luciferase reporter data. N=3, mean+SEM. Bottom, Mineralization of primary human OBs was assayed after two weeks of differentiation from MSC and two weeks of mineralization. N=4, mean+SEM, 2-way ANOVA.
as §5

[3] = test system: mitochondrial activity, pAKT, protein synthesis, and bone; assay: Compound profiling platform, overall profile (FIG. 15); assay type: cell-based; settings: for overall profile in compound profiling (anabolic effects, agonism): 10 uM
Description: N=4-6 from two different experiments. […] D) Mitochondrial activity was measured in myoblasts using high content imaging with mitotracker dye after 24 treatment. New amino acid incorporation was measured with LICOR in cell western for puromycin (SunSet assay). […] N=3, mean+SEM. […] N=4, mean+SEM, 2-way ANOVA.
as §4, §5
Additional studies were performed to assess activities of the various compounds identified from the previous profiling.

GILZ mRNA = assay: GILZ gene expression; assay type: cell-based
[4] = Loss of lean mass after a larger dose of LPS (whole-body NMR); assay type: in vivo, C57BL/6 male mice; settings: additional 18 h LPS treatment
From the text: as §1

[5] = Lactate-tolerance test (rate of glucose production); assay type: in vivo, C57BL/6 male mice; settings: after overnight fast; 10 mg/kg Dex or SR16024, 50 mg/kg SR11466
From the text: A) The effects of all tested compounds on IL-1β-induced IL-6 production (x-axes) versus GR interaction with the indicated peptides. B-C) The effects of all tested compounds on the indicated GC-regulated phenotypes (x-axes) versus GR interaction with the CHD9_1023 and CENPR_1 peptides (y-axes). D-F) COC plots. Each point represents the Pearson correlation coefficient, r, between a distinct gene expression or GR-peptide interaction assay with assays indicated on the x and y axes. G) The effects of all tested compounds on IL-1β-induced IL-6 production (y-axes) versus insulin-induced protein synthesis. […] IL-β-induced IL-6 production by A549 cells treated with the indicated compounds was compared by AlphaLISA. […] Mice in panel K were subjected to a lactate-tolerance test (LTT).
We were also interested in whether the compounds would show dissociation between Glut4 translocation in skeletal muscle and gluconeogenesis in the liver, but enhanced glucose production is typically studied after weeks or months of GC treatment. However, we reasoned that an overnight fast should enable detection of effects after a single dose. […] Thus, profiling effects of GCs in the physiological context of nutrient deprivation allowed the discovery of two new types of glucocorticoids with improved profiles in skeletal muscle.

LPS-induced TNFα = assay: LPS-induced plasma TNFα levels in mice; assay type: in vivo, C57BL/6 male mice; settings: mice pretreated with ligand
From the text: as §1

pAKT in C2C12 myotubes = assay: Insulin-induced pAKT (Thr308) In-Cell Western; assay type: cell-based, mouse
Description: as §2
A) Pearson correlations were calculated between the indicated variables. The different lines indicate statistically significant correlations at the corresponding p-value thresholds. Solid lines indicate positive correlations, dashed lines indicate negative correlations. […]
Physiologically, the effects of GCs on protein balance and Glut4 translocation vary in vivo depending upon the stressor. […] To assess protein degradation, we measured chymotrypsin-like proteasomal activity (FIG. 2, A). The activating phosphorylation of AKT at Thr308 (pAKT) was measured using a LI-COR In-Cell Western assay (FIG. 2, B and C). The rate-limiting step in insulin-mediated glucose uptake is the translocation of the glucose transporter, Glut4, to the surface membrane, which we also measured by In-Cell Western without permeabilizing the myotubes (FIG. 2, D). […]

[6] = background statement; cited from earlier work
C2C12 myotubes [7] = assay: Insulin-induced protein synthesis (SUnSET, In-Cell Western) in C2C12 myotubes; assay type: cell-based, mouse; settings: fasting conditions
Description: as §2, §3, §4, §5

myoblasts = assay: Myoblast proliferation and fusion into myotubes; assay type: cell-based
[8] = test system: primary human osteoblasts; assay: Osteoblast mineralization (Alizarin Red S) from mesenchymal stem cells; assay type: cell-based
Description: as §6
As a further test for dissociation, the compounds were profiled in primary human osteoblasts for effects on osteogenesis during 4 weeks of differentiation from mesenchymal stem cells. Specifically, osteoblast mineralization was examined as follows. Human mesenchymal stem cells (MSCs) at passage 2 were maintained in growth media consisted of alpha-MEM (Life Technologies, 32561-037) supplemented with 17% FBS (Sigma-Aldrich, 12303C), 2 mM L-glutarnine (Life Technologies, 25030-081), and 100 units/mL penicillin/streptomycin (Life Technologies, 15140-122). Effect of glucocorticoid receptor modulators on osteogenic differentiation of MSCs was quantified using Alizarin Red S (Sigma-Aldrich, A5533) staining. Briefly, human MSCs were seeded in the middle 8 wells of 48-well plates at plating density of 10,000 cells per well. PBS (Life Technologies, 10010-031) was added to surrounding wells to reduce evaporation of media in the middle wells during prolonged incubation. 24 h later, growth media was replaced by osteogenic induction media (OIM) consisted of low-glucose DMEM (Life Technologies, 10567-014) supplemented with 10% FBS (Sigma-Aldrich. 12303C), 50 μg/ml L-ascorbic-2-phosphate (Sigma-Aldrich, A8960), 10 mM β-glyceroiphosphate (Sigma-Aldrich, G9891), and glucocorticoid modulators. OIM containing test compounds was replaced every week. At the end of 2 weeks, monolayers were washed with PBS (Life Technologies, 10010-031), incubated in Richard-Allan Scientific™ Neutral Buffered Formalin (10%) (Thermo Scientific, 5725) for 2 h at room temperature, washed with deionized water and stained with Alizarin Red S for 30 min at room temperature. Monolayers were then rinsed 3×with deionized water until clear, stain was then extracted with 10% (w/v) cetylpyridinium chloride (Sigma-Aldrich, C0732) in 10 mM sodium phosphate (Sigma, S5011 and S5136), pH 7.0 for 15 min at room temperature and the amount of extracted dye quantified spectroscopically at 562 nm. Spectroscopic analysis performed using a synergy™ NEO HTS Multi-Mode Microplate Reader (BioTek Instruments, Inc.).

## CC#CC1(O)CCC2C3CCc4cc(C(=O)Nc5cccnc5C)ccc4C3C(OC)CC21C (stereo not drawn) [SR15960]
[1]
  inhibition of IL-1β-induced IL-6 secretion (anti-inflammatory): fully inhibiting IL-6 secretion

## CC#CC1(O)CCC2C3CCc4cc(C(=O)Nc5cccnc5C)ccc4C3C(OCC)CC21C (stereo not drawn) [SR15961]
[1]
  inhibition of IL-1β-induced IL-6 secretion (anti-inflammatory): fully inhibiting IL-6 secretion

## Cc1ncccc1NC(=O)c1ccc2c(c1)CC[C@@H]1C[C@@](O)(C(F)(F)F)CC[C@@]21Cc1ccccc1 [PF802, reference compound]
C2C12 myotubes [2]
  effect on protein degradation (proteasomal): stimulated protein degradation as strongly as Dex
L6 myotubes
  effect on Glut4 translocation: slightly improved compared to Dex
C2C12 myoblasts
  effect on mitochondrial activity / potential: strongly inhibited
[3]
  overall profile in compound profiling (anabolic effects, agonism): partial agonist

## CC#CC1(O)CCC2C3CCc4cc(C(=O)Nc5cccnc5C)ccc4C3C(OCc3ccccc3)CC21C (stereo not drawn) [SR11469]
[1]
  inhibition of IL-1β-induced IL-6 secretion (anti-inflammatory): weakly anti-inflammatory
GILZ mRNA
  GILZ gene expression: not activating GILZ
[3]
  overall profile in compound profiling (anabolic effects, agonism): more antagonistic SGRMs; also recorded: anabolic effects

## CC#CC1(O)CCC2C3CCc4cc(C(=O)Nc5ccc(C)nc5)ccc4C3C(O)CC21C (stereo not drawn) [SR15419]
[3]
  overall profile in compound profiling (anabolic effects, agonism): anabolic effects

## CC#CC1(O)CCC2C3CCc4cc(C(=O)Nc5ncccc5C)ccc4C3C(O)CC21C (stereo not drawn) [SR15438]
[3]
  overall profile in compound profiling (anabolic effects, agonism): anabolic effects

## C[C@@H]1C[C@H]2[C@@H]3CCC4=CC(=O)C=C[C@]4(C)[C@@]3(F)[C@@H](O)C[C@]2(C)[C@@]1(O)C(=O)CO [Dex, dexamethasone, reference compound]
C2C12 myotubes [2]
  effect on protein degradation (proteasomal): stimulated protein degradation
[4]
  loss of lean mass following a larger dose of LPS: significantly worsened
L6 myotubes; fasting conditions
  potency for modulating Glut4 translocation: low nM
[5]
  rate of glucose production in lactate tolerance test: increased the rate of glucose production
C2C12 myoblasts
  Dex concentration sufficient to produce the maximal loss of mitochondrial oxidative capacity: 1 nM
  effect on mitochondrial activity / potential: strongly inhibited; also recorded: reduced
LPS-induced TNFα
  LPS-induced TNFα levels in the blood: strongly suppressed
pAKT in C2C12 myotubes; 1 hr treatment
  insulin-mediated pAKT after 1 hr of treatment: not inhibited
pAKT in C2C12 myotubes; fasting conditions
  potency for modulating pAKT: low nM
[3]; myotubes, serum starvation, insulin challenge, cytarabine treatment
  dosing at which effects on the insulin signaling pathway are shown: 1 to 10 nM
[6]
  concentration required for effects on protein balance in vitro: 50 to 100 µM
C2C12 myotubes [7]
  potency for modulating protein synthesis: low nM
myoblasts
  fusion into myotubes: promotes fusion
  myoblast proliferation: strongly inhibits

## CC#CC1(O)CCC2C3CCc4cc(C(=O)Nc5cccnc5C)ccc4C3C(OCc3cccc(Cl)c3)CC21C (stereo not drawn) [SR16023]
[3]
  overall profile in compound profiling (anabolic effects, agonism): anabolic effects

## C[C@]12CC[C@H]3[C@@H](CCC4=CC(=O)CC[C@@]43C)[C@@H]1CC[C@@H]2O [testosterone, reference compound]
[8]
  effect on mineralization (bone): no effect
